Reference: US12498323B2, “Use of fluorescent imaging plate reader (FLIPR) high-throughput real-time fluorescence detection and analysis system in detection of calcium signals in plants” (Guizhou Normal University, priority 2022, dated 2025)

Assays:
Type in all cases: cell-based
[1] = tested on: protoplasts of the Primula rupestris sepals; assay: FLIPR calcium signal detection in protoplasts of Primula rupestris sepals
Source text: According to the method in Example 4, the EGTA solution and the CaCl2 solution were combined to treat the change of the protoplasts of the Primula rupestris sepals, and the parameters of the examples and comparative examples are shown in Table 6: […]

[2] = tested on: protoplasts of the valerian leaves; assay: FLIPR calcium signal detection in protoplasts of valerian leaves
[3] = tested on: protoplasts of the Primula rupestris petals; assay: FLIPR calcium signal detection in protoplasts of Primula rupestris petals
Source text: According to the method in Example 4, the EGTA solution and the CaCl2 solution were combined to treat the change of the protoplasts of the Primula rupestris petals, and the parameters of the examples and comparative examples are shown in Table 7:

[4] = tested on: protoplasts of the Primula rupestris leaves; assay: FLIPR calcium signal detection in protoplasts of Primula rupestris leaves
Experimental: (§1) (1) The protoplasts prepared in Example 1 were taken out, and mixed with the calcium dye according to a ratio of protoplast: calcium dye=1:1, and a group added with only a calcium dye and without protoplasts was taken as a control group, and added to a 96-well plate of a cell plate, as shown in Table 1:
(2) A buffer (helps buffer) was used to prepare a 96-well plate of the cell plate with different concentrations of CaCl2 solutions: CaCl2 (0, 10, 20, 40, 60, 80, 100, 150, 200, 300, and 500 mM). A group without adding protoplasts was taken as a control group.
(3) The cell plate was wrapped with a plastic wrap, and incubated at 37° C. for 1 h. After the incubation, the two plates were balanced, centrifuged at 600 rpm at 4° C. for 1-2 min, and loaded on the machine.
(4) The above experiment was repeated for 10 times to observe whether the results were consistent. The order of concentrations from top to bottom in the legend on the right in FIG. 3 and the order of concentrations from left to right in Table 2 can be in one-to-one correspondence.
The buffer was used to prepare a 96-well plate of the cell plate with different concentrations of CaCl2 solutions: CaCl2 (0, 100, 200, 220, 240, 260, 280, 300, 350, 400, and 450 mM). The cell plate was wrapped with a plastic wrap, and incubated at 37° C. for 1 h. After the incubation, the two plates were balanced, centrifuged at 600 rpm at 4° C. for 1-2 min, and loaded on the machine. The order of concentrations from top to bottom in the legend on the right in FIG. 5 and the order of concentrations from left to right in Table 3 can be in one-to-one correspondence:
Using step (1) in Example 2, a buffer was used to prepare a 96-well plate of a cell plate with different concentrations of EGTA solutions: EGTA solution (0, 0.1, 0.5, 1.0, 5, 10, 25, 50, 100, 150, and 200 mM).
The cell plate was wrapped with a plastic wrap, and incubated at 37° C. for 1 h. After the incubation, the two plates were balanced, centrifuged at 600 rpm at 4° C. for 1-2 min, and loaded on the machine.
The above experiment was repeated for 10 times to observe whether the results were consistent. The order of concentrations from top to bottom in the legend on the right in FIG. 7 and the order of concentrations from left to right in Table 4 can be in one-to-one correspondence.
as §1, with “dye=1:1 till a total of 150 μL,” for “dye=1:1,”, “plate.” for “plate, as shown in Table 1:”
(2) 220 mM of CaCl2 solution and 100 μM of EGTA solution were added to the 96-well plate of the cell plate in step (1).
(4) The above experiment was repeated for 10 times to observe whether the results were consistent.
The difference was that the EGTA solution and the CaCl2 solution in step (3) had different concentrations, and the corresponding parameters are shown in Table 5: […]

[5] = method of Example 2, FIG. 25-26
[6] = method of Example 2, FIG. 18-19

SMILES	CaCl2 concentration at which the calcium signal changes significantly ([1]; method of Example 2, FIG. 11-12) [mM]	CaCl2 concentration range in which the calcium signal changes significantly [2, 5] [mM]	concentration of the CaCl2 solution at which the calcium signal surges significantly [2, 5] [mM]	CaCl2 concentration range in which the calcium signal changes significantly [3, 6] [mM]	concentration of the CaCl2 solution at which the calcium signal surges significantly [3, 6] [mM]	concentration of the CaCl2 solution at which the calcium signal surges significantly ([4]; first series 0-500 mM CaCl2, 37° C. 1 h, FIG. 2-3) [mM]	concentration of the CaCl2 solution at which the calcium signal surges significantly ([4]; refined series 0-450 mM CaCl2, 37° C. 1 h, FIG. 4-5) [mM]	confirmed concentration of the CaCl2 solution (exogenous calcium signal stimulation) ([4]; refined series, FIG. 4-5) [mM]	effect of composite reaction of EGTA solution and CaCl2 solution on calcium signal fluorescence ([1]; EGTA plus CaCl2, Table 6 settings, FIG. 15-16)	confirmed concentration of the calcium signal chelator EGTA solution ([1]; method of Example 3, FIG. 13-14) [µM]	effect of composite reaction of EGTA solution and CaCl2 solution on calcium signal fluorescence ([2]; EGTA plus CaCl2, Table 8 settings, FIG. 29-30)	confirmed concentration of the calcium signal chelator EGTA solution ([2]; method of Example 3, FIG. 27-28) [µM]	effect of composite reaction of EGTA solution and CaCl2 solution on calcium signal fluorescence ([3]; EGTA plus CaCl2, Table 7 settings, FIG. 22-23)	confirmed concentration of the calcium signal chelator EGTA solution ([3]; method of Example 3, FIG. 20-21) [µM]	effect of composite reaction of EGTA solution and CaCl2 solution on calcium signal fluorescence ([4]; EGTA plus CaCl2 1:1, Table 5 settings, FIG. 8-9)	EGTA solution concentration with relatively excellent chelation effect on the calcium signal ([4]; EGTA series 0-200, 37° C. 1 h, FIG. 6-7) [µM]
[Ca+2].[Cl-].[Cl-] [CaCl2]	350	220 to 450	220	350 to 450	350	300	220	220 to 450	–	–	–	–	–	–	–	–
O=C(O)CN(CCOCCOCCN(CC(=O)O)CC(=O)O)CC(=O)O [EGTA, ethylene glycol tetraacetic acid]	–	–	–	–	–	–	–	–	can chelate the change of the fluorescence caused by the exogenous calcium signal	5 to 200	can chelate the change of the fluorescence caused by the exogenous calcium signal	0.1 to 200	can chelate the change of the fluorescence caused by the exogenous calcium signal	5 to 200	can chelate the change of the fluorescence caused by the exogenous calcium signal	5 to 200
